The target of data set [1] is Poly [ADP-ribose] polymerase 1 (Homo sapiens, UniProt P09874). The experiment in a line: Inhibition of human PARP1 after 3 hrs using [3H]NAD+ by scintillation proximity assay. For orientation: In a scintillation proximity assay essentially only radioactivity close to the scintillant gives light.
The subject of data set [2] is HeLa. The experiment in a line: Cytotoxicity against human HeLa cells expressing BRCA1 after 7 days by fluorimetric analysis. To be noted: 168 h. It counts as functional.
Data set [3] concerns HeLa. Description: Cytotoxicity against human BRCA1 deficient HeLa cells after 7 days by fluorimetric analysis. As to conditions: 168 h. It is filed as functional, cell-based.
The nature of data set [4]: Intrinsic clearance in rat microsomes. It is filed as ADME, Microsome.
Data set [5] can be described thus: Clearance in rat. It counts as ADME, organism-based. To be noted: in vivo.
In data set [6] the test system is Rattus norvegicus. The experiment in a line: (§1) Oral bioavailability in rat. It counts as ADME, organism-based. To be noted: in vivo.
Data set [7] can be described thus: as §1. It is filed as ADME, organism-based. As to conditions: in vivo.

pIC50: −log10 of the molar value. Where “and” joins values, the source holds several entries; their conditions need not be identical. Equal entries are not always repeated.

45 compounds from ChEMBL document CHEMBL1153247, “Synthesis and biological evaluation of substituted 2-phenyl-2H-indazole-7-carboxamides as potent poly(ADP-ribose) polymerase (PARP) inhibitors” (Bioorg Med Chem Lett, 2010) can be followed below.

Chain of Poly [ADP-ribose] polymerase 1 (P09874 whole entry): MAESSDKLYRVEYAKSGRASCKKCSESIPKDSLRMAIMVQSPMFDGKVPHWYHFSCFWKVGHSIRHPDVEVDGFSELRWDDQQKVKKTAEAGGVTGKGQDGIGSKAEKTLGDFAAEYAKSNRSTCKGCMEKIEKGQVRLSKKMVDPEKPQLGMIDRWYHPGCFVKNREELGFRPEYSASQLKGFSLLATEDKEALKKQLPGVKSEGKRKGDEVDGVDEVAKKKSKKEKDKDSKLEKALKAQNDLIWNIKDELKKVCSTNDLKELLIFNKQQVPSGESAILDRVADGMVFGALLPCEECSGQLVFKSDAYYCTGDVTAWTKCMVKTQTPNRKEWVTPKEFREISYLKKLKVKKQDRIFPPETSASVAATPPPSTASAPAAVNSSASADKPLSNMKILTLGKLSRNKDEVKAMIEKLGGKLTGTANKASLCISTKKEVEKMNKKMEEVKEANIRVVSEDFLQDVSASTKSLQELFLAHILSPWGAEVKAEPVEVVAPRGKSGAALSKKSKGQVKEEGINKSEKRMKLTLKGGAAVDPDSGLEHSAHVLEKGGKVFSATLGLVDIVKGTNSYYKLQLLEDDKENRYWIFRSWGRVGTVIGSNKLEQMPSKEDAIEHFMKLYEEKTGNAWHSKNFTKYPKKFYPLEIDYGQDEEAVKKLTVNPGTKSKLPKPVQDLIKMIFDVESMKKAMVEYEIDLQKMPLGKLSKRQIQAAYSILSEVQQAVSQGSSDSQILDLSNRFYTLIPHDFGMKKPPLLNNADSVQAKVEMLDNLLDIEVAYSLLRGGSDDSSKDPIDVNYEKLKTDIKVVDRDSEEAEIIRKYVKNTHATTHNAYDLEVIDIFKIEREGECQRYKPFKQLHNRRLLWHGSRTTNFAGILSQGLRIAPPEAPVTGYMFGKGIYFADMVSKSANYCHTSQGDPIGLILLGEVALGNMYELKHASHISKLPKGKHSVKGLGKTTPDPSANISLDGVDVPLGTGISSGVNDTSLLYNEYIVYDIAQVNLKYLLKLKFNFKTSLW

For the compound `NC(=O)c1cccc2cn(-c3ccc(NC(=O)CN4CCCCC4)cc3)nc12`, the pIC50 in data set [1] was 7.70; in data set [3], 5.85. Besides, the midpoint of cytotoxicity in data set [2], the CC50, lay at 3 µM.

Regarding `NC(=O)c1cccc2cn(-c3cccc(C(=O)N4CCCNCC4)c3)nc12`, the values for the negative logarithm of the IC50 (pIC50) in data set [1] and in data set [3] were 7.40 and < 4.70, respectively. Also, the half-maximal cytotoxic concentration (CC50) in data set [2] was > 20 µM.

Turning to `NC(=O)c1cccc2cn(-c3ccc(C(=O)NCCN4CCOCC4)cc3)nc12`, the pIC50 in data set [1] is 7.27; in data set [3] it was 5.12. Further, in data set [2], the 50% cytotoxic concentration (CC50) was > 20 µM.

For `CN1CCC[C@H]1C(=O)Nc1ccc(-n2cc3cccc(C(N)=O)c3n2)cc1`, the pIC50 was 7.77 in data set [1] and 5.92 in data set [3]. The compound further had a CC50 in data set [2] of 5 µM.

As to `CNCc1ccc(-n2cc3c(Cl)ccc(C(N)=O)c3n2)cc1`, the pIC50 is 6.74 in data set [1] and 5.28 in data set [3]. Moreover, half-maximal cytotoxicity in data set [2] (CC50) was put at 4.3 µM.

Turning to `NC(=O)c1cccc2cn(-c3ccc(C(=O)NCCN4CCCCC4)cc3)nc12`, the negative logarithm of the IC50 (pIC50) in data set [1] is 7.42; in data set [3], 5.52. Besides, the 50% cytotoxic concentration (CC50) in data set [2] was found to be 6.4 µM.

On to `CNCc1ccc(-n2cc3c(F)c(F)cc(C(N)=O)c3n2)cc1`, for which the pIC50 was 7.60 in data set [1] and 5.59 in data set [3]. In data set [2], the half-maximal cytotoxic concentration (CC50) was > 5 µM.

For the compound `NC(=O)c1cccc2cn(-c3ccc(NC(=O)CN4CCOCC4)cc3)nc12`, the pIC50 in data set [1] is 7.52; in data set [3], 5.30. The CC50 in data set [2] was > 6 µM.

Turning to `CNCc1ccc(-n2cc3c(F)ccc(C(N)=O)c3n2)cc1`, the negative-log IC50 (pIC50) in data set [1] is 8.10; in data set [3], 5.60. Further, the CC50 in data set [2] was found to be 6.3 µM.

As to `NC(=O)c1cccc2cn(-c3ccccc3)nc12`, the negative-log IC50 (pIC50) in data set [1] is 7.60.

Consider `CNCc1ccc(-n2cc3cc(F)cc(C(N)=O)c3n2)cc1`, for which the results for the pIC50 in data set [1] and in data set [3] were 8.85 and 7.03, respectively. Besides, the 50% cytotoxic concentration (CC50) in data set [2] worked out at 1.8 µM.

On to `CN1CCCC(C(=O)N(C)Cc2ccc(-n3cc4cccc(C(N)=O)c4n3)cc2)C1` (stereo not drawn), for which the values for the pIC50 in data set [1] and in data set [3] were 7.60 and 5.07, respectively. The CC50 in data set [2] was > 20 µM.

In data set [4], `NC(=O)c1cccc2cn(-c3ccc(NC(=O)C4CNC4)cc3)nc12` displayed a microsomal CLint of 1 µL/min/mg. In addition, the pIC50 is 8.00 in data set [1] and 6.04 in data set [3]. The CC50 in data set [2] was > 20 µM. Moreover, the clearance in data set [5] is 0.78 L/h/kg. Moreover, in data set [6], the F was 1% and 3%.

Take `CN1CCC(C(=O)Nc2ccc(-n3cc4cccc(C(N)=O)c4n3)cc2)CC1`: the negative-log IC50 (pIC50) was 8.00 in data set [1] and 5.44 in data set [3]. The compound further showed a CC50 in data set [2] of 8.4 µM.

With `CNCc1ccc(-n2nc3c(C(N)=O)cccc3c2Cl)cc1`, the pIC50 is 7.70 in data set [1] and 5.23 in data set [3]. This compound also came in with a half-maximal cytotoxic concentration (CC50) in data set [2] of 11 µM.

With `CN1CCC[C@@H](C(=O)Nc2ccc(-n3cc4cc(F)cc(C(N)=O)c4n3)cc2F)C1`, the pIC50 in data set [1] is 7.92; in data set [3], 6.36. This compound also registered a CC50 in data set [2] of 1.8 µM.

For the compound `NC(=O)c1cc(F)cc2cn(-c3ccc(NC(=O)C4CNC4)c(F)c3)nc12`, the pIC50 in data set [1] was 8.40; in data set [3], 7.38. Also, the midpoint of cytotoxicity in data set [2], the CC50, lay at 0.65 µM.

Regarding `CN1CCC[C@@H](C(=O)Nc2ccc(-n3cc4cccc(C(N)=O)c4n3)cc2)C1`, the results for the pIC50 in data set [1] and in data set [3] were 7.52 and 6.09, respectively. This compound also displayed a CC50 in data set [2] of 4.3 µM. The compound further yielded a clearance in data set [5] of 1.38 L/h/kg. In data set [7], this compound registered a bioavailability of 47%.

On to `NC(=O)c1cccc2cn(-c3ccc(NC(=O)CN4CCCC4)cc3)nc12`, for which the pIC50 in data set [1] is 8.00; in data set [3], 6.03. In addition, the CC50 in data set [2] came to 2.8 µM.

In the case of `CNCc1ccc(-n2cc3cccc(C(N)=O)c3n2)cc1F`, the negative logarithm of the IC50 (pIC50) in data set [1] was 8.40; in data set [3], 6.70. In data set [2], this compound yielded a CC50 of 3.8 µM.

Consider `CN(Cc1ccc(-n2cc3cccc(C(N)=O)c3n2)cc1)C(=O)C1CNC1`, for which the negative-log IC50 (pIC50) in data set [1] is 7.74; in data set [3], < 4.70. Moreover, it took 20 µM to reach half-maximal cytotoxicity in data set [2] (CC50).

Consider `CNCc1ccc(-n2cc3c(OC)ccc(C(N)=O)c3n2)cc1`, for which the figures for the pIC50 in data set [1] and in data set [3] were < 6.00 and 5.47, respectively. Moreover, the CC50 in data set [2] was found to be 5.5 µM.

As for `CNCc1ccc(-n2cc3ccc(F)c(C(N)=O)c3n2)cc1`, the values for the negative-log IC50 (pIC50) in data set [1] and in data set [3] were 7.70 and 5.80, respectively. Also, the CC50 in data set [2] is > 10 µM.

On to `CNCc1ccc(-n2cc3cccc(C(N)=O)c3n2)cc1`, for which the pIC50 was 8.30 in data set [1] and 6.30 in data set [3]. This compound had a half-maximal cytotoxic concentration (CC50) in data set [2] of 5.6 µM.

With `CNCc1ccc(-n2cc3cc(Cl)cc(C(N)=O)c3n2)cc1`, the pIC50 was 8.30 in data set [1] and 6.59 in data set [3]. In data set [2], the CC50 was determined as 1 µM.

In the case of `CN(C)CC(=O)Nc1ccc(-n2cc3cccc(C(N)=O)c3n2)cc1`, the negative logarithm of the IC50 (pIC50) in data set [1] was 7.82; in data set [3], 5.82. Further, the CC50 in data set [2] was 5 µM.

Turning to `CNCc1ccc(-n2cc3cccc(C(N)=O)c3n2)cc1O`, the values for the pIC50 in data set [1] and in data set [3] were 7.92 and 5.47, respectively. In addition, in data set [2], the cytotoxic concentration (CC50) is > 10 µM.

Regarding `CNCc1ccc(-n2cc3cccc(C(N)=O)c3n2)cc1OC`, the pIC50 was 8.40 in data set [1] and 5.72 in data set [3]. The compound also returned a CC50 in data set [2] of 11 µM.

As for `NC(=O)c1cccc2cn(-c3ccc(C(=O)NCc4ccncc4)cc3)nc12`, the values for the pIC50 in data set [1] and in data set [3] were 8.00 and 5.41, respectively. Also, the midpoint of cytotoxicity in data set [2], the CC50, lay at 8.7 µM.

Regarding `NC(=O)c1cccc2cn(-c3ccc(C(=O)Nc4ccncc4)cc3)nc12`, the pIC50 in data set [1] is 7.52; in data set [3] it was 5.14. For the same compound, the cytotoxic concentration (CC50) in data set [2] is > 50 µM.

In the case of `CN1CCC[C@H](C(=O)Nc2ccc(-n3cc4cccc(C(N)=O)c4n3)cc2)C1`, the negative-log IC50 (pIC50) in data set [1] was 7.70; in data set [3], 5.89. Besides, the midpoint of cytotoxicity in data set [2], the CC50, lay at 6 µM. The compound further came in with a clearance in data set [5] of 2.52 L/h/kg.

In the case of `CN1CCCC(C(=O)NCc2ccc(-n3cc4cccc(C(N)=O)c4n3)cc2)C1` (stereo not drawn), the negative logarithm of the IC50 (pIC50) is 7.66 in data set [1] and 5.64 in data set [3]. For the same compound, half-maximal cytotoxicity in data set [2] (CC50) was put at 9.4 µM.

Regarding `CN1CCC(C(=O)Nc2ccc(-n3cc4cc(F)cc(C(N)=O)c4n3)cc2)CC1`, the negative logarithm of the IC50 (pIC50) was 7.80 in data set [1] and 6.28 in data set [3]. In data set [2], this compound gave a CC50 of 2.7 µM. For the same compound, the clearance in data set [5] stood at 1.56 L/h/kg. Moreover, the bioavailability in data set [7] was found to be 66%.

For `NC(=O)c1cccc2cn(-c3ccc(C(=O)NCCN4CCCC4)cc3)nc12`, the values for the pIC50 in data set [1] and in data set [3] were 7.70 and 5.48, respectively. The compound further gave a CC50 in data set [2] of 8 µM.

Consider `NC(=O)c1cc(F)cc2cn(-c3ccc(NC(=O)C4CNC4)cc3)nc12`, for which the values for the pIC50 in data set [1] and in data set [3] were 8.30 and 6.51, respectively. The compound further gave a CC50 in data set [2] of 5.9 µM. This compound came in with a clearance in data set [5] of 0.78 L/h/kg. In addition, in data set [7], the bioavailability was determined as 3%.

Turning to `CN1CC(C(=O)Nc2ccc(-n3cc4cc(F)cc(C(N)=O)c4n3)cc2)C1`, the negative logarithm of the IC50 (pIC50) in data set [1] was 8.22; in data set [3], 6.14. Moreover, the midpoint of cytotoxicity in data set [2], the CC50, lay at 2.6 µM.

Turning to `CN1CC(C(=O)Nc2ccc(-n3cc4cc(F)cc(C(N)=O)c4n3)cc2F)C1`, the pIC50 in data set [1] was 8.22; in data set [3], 6.32. In data set [2], this compound showed a CC50 of 1.6 µM.

For the compound `CNCc1ccc(-n2cc3c(O)ccc(C(N)=O)c3n2)cc1`, the figures for the pIC50 in data set [1] and in data set [3] were 6.27 and < 4.70, respectively. The 50% cytotoxic concentration (CC50) in data set [2] was > 20 µM.

On to `CNCc1ccc(-n2cc3cc(F)cc(C(N)=O)c3n2)c(F)c1`, for which the results for the pIC50 in data set [1] and in data set [3] were 8.22 and 6.64, respectively. In data set [2], this compound had a CC50 of 4.2 µM.

`CN(C)CCNC(=O)c1ccc(-n2cc3cccc(C(N)=O)c3n2)cc1`: the pIC50 in data set [1] was 8.00; in data set [3] it was 5.27. In data set [2], this compound registered a CC50 of 8.9 µM.

Consider `CN1CCCCC1C(=O)Nc1ccc(-n2cc3cccc(C(N)=O)c3n2)cc1` (racemic), for which the negative-log IC50 (pIC50) in data set [1] was 7.34; in data set [3], 5.59. In addition, in data set [2], it took 6.7 µM to reach half-maximal cytotoxicity (CC50).

As for `CNCc1ccc(-n2cc3cccc(C(N)=O)c3n2)cc1C(F)(F)F`, the pIC50 in data set [1] was 8.30; in data set [3], 5.21. In addition, the cytotoxic concentration (CC50) in data set [2] is > 20 µM.

Turning to `NC(=O)c1cccc2cn(-c3ccc(CNC(=O)C4CNC4)cc3)nc12`, the pIC50 in data set [1] was 7.19; in data set [3], < 4.70. Further, the CC50 in data set [2] was > 20 µM.

Take `CNCc1ccc(-n2cc3cc(F)cc(C(N)=O)c3n2)cc1F`: the pIC50 in data set [1] is 8.70; in data set [3] it was 7.59. In addition, half-maximal cytotoxicity in data set [2] (CC50) was put at 1.5 µM.

As to `NC(=O)c1cccc2cn(-c3ccc(C(=O)N4CCCNCC4)cc3)nc12`, the negative-log IC50 (pIC50) in data set [1] was 7.66; in data set [3], < 5.00. Moreover, the cytotoxic concentration (CC50) in data set [2] was > 20 µM.

As a reminder, the pIC50 is the negative decadic logarithm of the IC50, by convention in mol/L. A word on the CC50: it is the concentration giving 50% cytotoxicity. Usually microsomal CLint stands for the capacity of the preparation to metabolise the compound, expressed as a volume cleared per time. For orientation: clearance means a measure of how efficiently the substance is removed, as volume per time. A word on the bioavailability: it is the share of a dose that reaches the circulation, judged against a reference dose that is usually intravenous.
